The values that follow come from patent publication US10934283B2, “COMT inhibiting methods and compositions” (LIEBER INSTITUTE FOR BRAIN DEVELOPMENT, priority 2015, dated 2021).

For this test, the target named is T1, catechol-O-methyltransferase (COMT) (Homo sapiens, UniProt P21964).
T1 construct: M51A variant) was expressed in HEK 293F cells
T1 sequence (P21964 52-271 limits assumed): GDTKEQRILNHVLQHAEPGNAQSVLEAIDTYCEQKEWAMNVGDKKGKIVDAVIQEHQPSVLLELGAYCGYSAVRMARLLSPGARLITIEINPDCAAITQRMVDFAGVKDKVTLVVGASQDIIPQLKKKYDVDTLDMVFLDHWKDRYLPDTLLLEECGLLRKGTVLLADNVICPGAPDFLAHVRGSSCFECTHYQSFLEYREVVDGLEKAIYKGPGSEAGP
The experiment in a line: COMT inhibition assay (HTRF, production of SAH from SAM). It counts as biochemical. To be noted: table does not say MB-COMT or S-COMT. Summed up: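 Membranes from HEK293F cells expressing MB-COMT (M51A variant) incubated with 20 μM SAM and 1.5 μM dopamine plus compound (10 concentrations) for 40 min at 37 °C; S-COMT (Val158) at 0.15 ng/well used 100 μM dopamine, 15 min. SAH measured by HTRF against a standard curve; pIC50 from 4-parameter logistic fit.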
Background: TR-FRET usually uses a lanthanide donor and a delayed reading to cut background.
For the molecule `CC(C)c1ccc(CN2CCn3cc(O)c(=O)cc3C2)cc1` [Example 10, 7-hydroxy-2-[4-(propan-2-yl)benzyl]-1,2,3,4-tetrahydro-8H-pyrido[1,2-a]pyrazin-8-one], the “Activity range (pIC50)” value is “+++ (three plus signs (+++) is associated with a pIC50 of above about 7)”.
Under `COc1cccc(OC)c1C(C)N1CCn2cc(O)c(=O)cc2C1` (stereo not drawn) [Example 74, 2-[1-(2,6-dimethoxyphenyl)ethyl]-7-hydroxy-1,2,3,4-tetrahydro-8H-pyrido[1,2-a]pyrazin-8-one] stands “++ (two plus signs (++) is associated with a pIC50 of from about 6 to 7)”; under `CC(Cc1ccc2c(c1)OCO2)CN1CCn2cc(O)c(=O)cc2C1` (stereo not drawn) [Example 49, 2-[3-(1,3-benzodioxol-5-yl)-2-methylpropyl]-7-hydroxy-1,2,3,4-tetrahydro-8H-pyrido[1,2-a]pyrazin-8-one], “++ (two plus signs (++) is associated with a pIC50 of from about 6 to 7)”.
Turning to `O=c1cc2n(cc1O)CC(Cc1ccccc1)N(Cc1ccccc1)C2` (stereo not drawn) [Example 128, 2,3-dibenzyl-7-hydroxy-1,2,3,4-tetrahydro-8H-pyrido[1,2-a]pyrazin-8-one], the “Activity range (pIC50)” value is reported as “++ (two plus signs (++) is associated with a pIC50 of from about 6 to 7)”.
Under `O=c1cc2n(c(F)c1O)CCN(Cc1ccccc1Cl)C2` [Example 134, 6-fluoro-7-hydroxy-2-[[2-chlorophenyl]methyl]-3,4-dihydro-1H-pyrido[1,2-a]pyrazin-8-one] stands “++ (two plus signs (++) is associated with a pIC50 of from about 6 to 7)”; under `O=c1cc2n(cc1O)CC(Cc1ccccc1)N(Cc1c(Cl)cccc1Cl)C2` (stereo not drawn) [Example 129, 3-benzyl-2-(2,6-dichlorobenzyl)-7-hydroxy-1,2,3,4-tetrahydro-8H-pyrido[1,2-a]pyrazin-8-one], “++ (two plus signs (++) is associated with a pIC50 of from about 6 to 7)”; under `O=c1cc2n(cc1O)CCN(Cc1cc(Cl)cc3c1OCCC3c1c[nH]cn1)C2` (stereo not drawn) [Example 35, 2-{[6-chloro-4-(1H-imidazol-4-yl)-3,4-dihydro-2H-chromen-8-yl]methyl}-7-hydroxy-1,2,3,4-tetrahydro-8H-pyrido[1,2-a]pyrazin-8-one], “++ (two plus signs (++) is associated with a pIC50 of from about 6 to 7)”.
Then `CC(c1c(F)ccc(Cl)c1F)N1CCn2cc(O)c(=O)cc2C1` (stereo not drawn) [Example 85, 2-[1-(3-chloro-2,6-difluorophenyl)ethyl]-7-hydroxy-1,2,3,4-tetrahydro-8H-pyrido[1,2-a]pyrazin-8-one], with “+++ (three plus signs (+++) is associated with a pIC50 of above about 7)”.
Then `CCc1ccc(CN2CCn3cc(O)c(=O)c(Cl)c3C2)cc1` [Example 136, 9-chloro-2-(4-ethylbenzyl)-7-hydroxy-1,2,3,4-tetrahydro-8H-pyrido[1,2-a]pyrazin-8-one], with “+++ (three plus signs (+++) is associated with a pIC50 of above about 7)”; and `Cc1cccc(C)c1CN1CCn2cc(O)c(=O)cc2C1C` (stereo not drawn) [Example 121, 2-(2,6-dimethylbenzyl)-7-hydroxy-1-methyl-1,2,3,4-tetrahydro-8H-pyrido[1,2-a]pyrazin-8-one], with “+++ (three plus signs (+++) is associated with a pIC50 of above about 7)”.
For `O=c1cc2n(cc1O)CCN(Cc1c(F)cccc1F)C2` [Example 62, 2-[(2,6-difluorophenyl)methyl]-7-hydroxy-3,4-dihydro-1H-pyrido[1,2-a]pyrazin-8-one], the “Activity range (pIC50)” value is “+++ (three plus signs (+++) is associated with a pIC50 of above about 7)”.
Then `O=c1cc2n(cc1O)CCN(Cc1coc3ccccc3c1=O)C2` [Example 41, 7-hydroxy-2-[(4-oxo-4H-chromen-3-yl)methyl]-1,2,3,4-tetrahydro-8H-pyrido[1,2-a]pyrazin-8-one], with “++ (two plus signs (++) is associated with a pIC50 of from about 6 to 7)”; and `O=c1cc2n(cc1O)CCN(c1cccc3ncccc13)C2` [Example 110, 7-hydroxy-2-(5-quinolyl)-3,4-dihydro-1H-pyrido[1,2-a]pyrazin-8-one], with “+ (a single plus (+) is associated with a pIC50 of from about 4.5 to 6)”.
As to `CC(c1cccc(Cl)c1)N1CCn2cc(O)c(=O)cc2C1` (stereo not drawn) [Example 72, 2-[1-(3-chlorophenyl)ethyl]-7-hydroxy-1,2,3,4-tetrahydro-8H-pyrido[1,2-a]pyrazin-8-one], the “Activity range (pIC50)” value is reported as “++ (two plus signs (++) is associated with a pIC50 of from about 6 to 7)”.
Then `O=c1cc2n(cc1O)CCN(CCn1nc3ccccc3n1)C2` [Example 5, 2-[2-(benzotriazol-2-yl)ethyl]-7-hydroxy-3,4-dihydro-1H-pyrido[1,2-a]pyrazin-8-one], with “+ (a single plus (+) is associated with a pIC50 of from about 4.5 to 6)”; and `O=c1cc2n(cc1O)CCN(c1ccccc1)C2` [Example 112, 7-hydroxy-2-phenyl-1,2,3,4-tetrahydro-8H-pyrido[1,2-a]pyrazin-8-one], with “+++ (three plus signs (+++) is associated with a pIC50 of above about 7)”.
In the case of `O=c1c(O)cn2c(c1C1CC1)CN(Cc1ccccc1Cl)CC2` [Example 142, 2-[(2-chlorophenyl)methyl]-9-cyclopropyl-7-hydroxy-3,4-dihydro-1H-pyrido[1,2-a]pyrazin-8-one], the “Activity range (pIC50)” value is given as “+++ (three plus signs (+++) is associated with a pIC50 of above about 7)”.
For `O=c1cc2n(cc1O)CCN(Cc1c[nH]nc1-c1ccccc1)C2` [Example 45, 7-hydroxy-2-[(3-phenyl-1H-pyrazol-4-yl)methyl]-1,2,3,4-tetrahydro-8H-pyrido[1,2-a]pyrazin-8-one], the “Activity range (pIC50)” value is listed as “++ (two plus signs (++) is associated with a pIC50 of from about 6 to 7)”.
Then `CC1Cn2cc(O)c(=O)cc2CN1Cc1ccccc1` (stereo not drawn) [Example 131, 2-benzyl-7-hydroxy-3-methyl-1,2,3,4-tetrahydro-8H-pyrido[1,2-a]pyrazin-8-one], with “++ (two plus signs (++) is associated with a pIC50 of from about 6 to 7)”; and `O=c1c(O)cn2c(c1Cl)CN(Cc1c(F)cccc1Cl)CC2` [Example 133, 9-chloro-2-(2-chloro-6-fluorobenzyl)-7-hydroxy-1,2,3,4-tetrahydro-8H-pyrido[1,2-a]pyrazin-8-one], with “+++ (three plus signs (+++) is associated with a pIC50 of above about 7)”.
Then `O=c1cc2n(cc1O)CCN(Cc1ccccn1)C2` [Example 11, 7-hydroxy-2-(pyridin-2-ylmethyl)-1,2,3,4-tetrahydro-8H-pyrido[1,2-a]pyrazin-8-one], with “++ (two plus signs (++) is associated with a pIC50 of from about 6 to 7)”; and `CC1(C)Cn2cc(O)c(=O)cc2CN1Cc1ccccc1Cl` [Example 65, 2-[(2-chlorophenyl)methyl]-7-hydroxy-3,3-dimethyl-1,4-dihydropyrido[1,2-a]pyrazin-8-one], with “++ (two plus signs (++) is associated with a pIC50 of from about 6 to 7)”; and `O=c1cc2n(cc1O)CCN(Cc1ccccc1)C2` [Example 1, 2-benzyl-7-hydroxy-1,2,3,4-tetrahydro-8H-pyrido[1,2-a]pyrazin-8-one], with “++ (two plus signs (++) is associated with a pIC50 of from about 6 to 7)”.
In the case of `O=c1cc2n(cc1O)CCN(C(CF)c1ccccc1)C2` (stereo not drawn) [Example 105, 2-(2-fluoro-1-phenyl-ethyl)-7-hydroxy-3,4-dihydro-1H-pyrido[1,2-a]pyrazin-8-one], the “Activity range (pIC50)” value is given as “+++ (three plus signs (+++) is associated with a pIC50 of above about 7)”.
Then `CCc1ccc(CN2CCn3cc(O)c(=O)c(Br)c3C2)cc1` [Example 138, 9-bromo-2-(4-ethylbenzyl)-7-hydroxy-1,2,3,4-tetrahydro-8H-pyrido[1,2-a]pyrazin-8-one], with “+++ (three plus signs (+++) is associated with a pIC50 of above about 7)”; and `O=c1cc2n(cc1O)CCN(C1CCCc3ccccc31)C2` (stereo not drawn) [Example 90, 7-hydroxy-2-(1,2,3,4-tetrahydronaphthalen-1-yl)-1,2,3,4-tetrahydro-8H-pyrido[1,2-a]pyrazin-8-one], with “+++ (three plus signs (+++) is associated with a pIC50 of above about 7)”.
Regarding `COc1cccc(C(C)N2CCn3cc(O)c(=O)cc3C2)c1` (stereo not drawn) [Example 83, 7-hydroxy-2-[1-(3-methoxyphenyl)ethyl]-1,2,3,4-tetrahydro-8H-pyrido[1,2-a]pyrazin-8-one], the “Activity range (pIC50)” value is listed as “++ (two plus signs (++) is associated with a pIC50 of from about 6 to 7)”.
With `O=c1cc2n(cc1O)CCN(Cc1cc(-c3ccccc3)[nH]n1)C2` [Example 34, 7-hydroxy-2-[(5-phenyl-1H-pyrazol-3-yl)methyl]-1,2,3,4-tetrahydro-8H-pyrido[1,2-a]pyrazin-8-one], the “Activity range (pIC50)” value is on record as “++ (two plus signs (++) is associated with a pIC50 of from about 6 to 7)”.
With `O=c1cc2n(cc1O)CCN(C1(c3ccccc3)COC1)C2` [Example 111, 7-hydroxy-2-(3-phenyloxetan-3-yl)-3,4-dihydro-1H-pyrido[1,2-a]pyrazin-8-one], the “Activity range (pIC50)” value is on record as “++ (two plus signs (++) is associated with a pIC50 of from about 6 to 7)”.
Then `CC(=O)Nc1cccc(C(C)N2CCn3cc(O)c(=O)cc3C2)c1` (stereo not drawn) [Example 96, N-{3-[1-(7-hydroxy-8-oxo-1,3,4,8-tetrahydro-2H-pyrido[1,2-a]pyrazin-2-yl)ethyl]phenyl}acetamide], with “++ (two plus signs (++) is associated with a pIC50 of from about 6 to 7)”.
